Test [1] has as its target T1, cysteine-substituted TMC1 constructs (Mus musculus, UniProt Q8R4P5, G411C).
T1 construct: control full-length TMC1 (TMC1_WT); expressed in transfected cells; host or cells: Tmc1-knockout mouse OHCs, injectoporation
T1 sequence (Q8R4P5 1-757 G411C): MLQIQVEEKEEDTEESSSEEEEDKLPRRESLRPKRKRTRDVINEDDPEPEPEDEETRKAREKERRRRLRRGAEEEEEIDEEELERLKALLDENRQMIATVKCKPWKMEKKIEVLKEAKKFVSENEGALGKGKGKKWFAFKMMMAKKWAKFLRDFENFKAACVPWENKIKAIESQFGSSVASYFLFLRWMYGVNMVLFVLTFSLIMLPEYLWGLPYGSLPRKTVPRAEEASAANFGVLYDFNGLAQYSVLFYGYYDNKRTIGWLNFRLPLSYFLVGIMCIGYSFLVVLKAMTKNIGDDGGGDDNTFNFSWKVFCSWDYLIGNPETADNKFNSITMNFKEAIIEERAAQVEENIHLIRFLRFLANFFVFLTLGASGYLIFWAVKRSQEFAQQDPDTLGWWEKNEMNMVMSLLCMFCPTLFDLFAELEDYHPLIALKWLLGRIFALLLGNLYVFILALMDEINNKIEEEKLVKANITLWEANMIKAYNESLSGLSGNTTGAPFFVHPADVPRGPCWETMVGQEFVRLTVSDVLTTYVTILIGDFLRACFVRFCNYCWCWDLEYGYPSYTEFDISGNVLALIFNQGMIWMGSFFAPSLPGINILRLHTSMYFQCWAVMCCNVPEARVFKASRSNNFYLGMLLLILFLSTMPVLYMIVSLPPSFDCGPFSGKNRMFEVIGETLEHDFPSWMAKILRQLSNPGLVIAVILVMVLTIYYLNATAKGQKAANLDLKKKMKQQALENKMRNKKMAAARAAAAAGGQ
Description: Background current before and after MTSET treatment in Tmc1-knockout OHCs expressing cysteine-substituted TMC1. It is filed as cell-based. Conditions: Tmc1-knockout OHCs expressing TMC1-G411C, individual cells. On the procedure:
(§1) Mouse Tmc1 and Tmc2 cDNAs were cloned into CMV-Script and pCDNA3.1- vectors, respectively. To obtain the Tmc1-deafness vector and amino-acid-substituted Tmc1 constructs, specific primers were designed and used for PCR (Supplementary File 1). […] In brief, the organ of Corti was isolated from P3 mice and cut into three pieces in Dulbecco’s modified Eagle’s medium/F12 with 1.5 μg/ml ampicillin. For electroporation, a glass pipette (2 μm tip diameter) was used to deliver cDNA plasmids (0.2 μg/μl in 1 × Hanks' balanced salt solution) to hair cells in the sensory epithelium. EGFP was used as an indicator for the selection of transfected hair cells. A series of three pulses at 60 V lasting 15 ms at 1 s intervals was applied to cochlear tissues by an electroporator (ECM Gemini X2, BTX, CA). The cochlear tissues were cultured for 1 day in vitro and then used for electrophysiological recording.
(§2) All experiments were performed at room temperature (20–25°C). Briefly, the basilar membrane with hair cells was acutely dissected from neonatal mice. […] The acutely isolated or cultured basilar membrane was used for electrophysiological recording within 1 h. […] Hair cells were recorded with a patch-clamp amplifier (EPC 10 USB and Patchmaster software, HEKA Elektronik, Lambrecht/Pfalz, Germany).
(§3) The sampling rate was 1 kHz for leak current recording, 50 kHz for the IV protocol and current-clamp recording, and 100 kHz for unitary channel recording. The voltage-clamp used a –70 mV holding potential, and the current-clamp was held at 0 pA. Only recordings with a current baseline <20 pA in NMDG solution were used for statistical analysis.

Test [2] concerns the target T2, cysteine-substituted TMC1 constructs (Mus musculus, UniProt Q8R4P5, N447C).
T2 construct: control full-length TMC1 (TMC1_WT); expressed in transfected cells; host or cells: Tmc1-knockout mouse OHCs, injectoporation
T2 sequence (Q8R4P5 1-757 N447C): T1 sequence (Q8R4P5 1-757 G411C) with C411G, N447C
The description is as above. It counts as cell-based. Conditions: Tmc1-knockout OHCs expressing TMC1-N447C, individual cells. How it is done:
as §1, §2, §3

In test [3] the target is T3, TMC1-M412C (Mus musculus, UniProt Q8R4P5, M412C).
T3 construct: control full-length TMC1 (TMC1_WT); expressed in transfected cells; host or cells: Tmc1;Tmc2 double-knockout mouse OHCs (P1 + 3 DIV), injectoporation
Description: MET current under MTSET treatment in Tmc1;Tmc2 double-knockout OHCs expressing TMC1-M412C. It counts as cell-based.

The target in test [4] is T3, TMC1-M412C. Further details: method as in Pan et al., 2018. Conditions: MTSET treatment of M412C; ref Pan et al., 2018; cited from earlier work.

Residue numbers refer to the chain shown, from its start. Several values for one entry are separate records, joined by “and”; a condition that tells them apart may be missing. Identical values can stand only once.

T3 sequence (Q8R4P5 whole entry M412C): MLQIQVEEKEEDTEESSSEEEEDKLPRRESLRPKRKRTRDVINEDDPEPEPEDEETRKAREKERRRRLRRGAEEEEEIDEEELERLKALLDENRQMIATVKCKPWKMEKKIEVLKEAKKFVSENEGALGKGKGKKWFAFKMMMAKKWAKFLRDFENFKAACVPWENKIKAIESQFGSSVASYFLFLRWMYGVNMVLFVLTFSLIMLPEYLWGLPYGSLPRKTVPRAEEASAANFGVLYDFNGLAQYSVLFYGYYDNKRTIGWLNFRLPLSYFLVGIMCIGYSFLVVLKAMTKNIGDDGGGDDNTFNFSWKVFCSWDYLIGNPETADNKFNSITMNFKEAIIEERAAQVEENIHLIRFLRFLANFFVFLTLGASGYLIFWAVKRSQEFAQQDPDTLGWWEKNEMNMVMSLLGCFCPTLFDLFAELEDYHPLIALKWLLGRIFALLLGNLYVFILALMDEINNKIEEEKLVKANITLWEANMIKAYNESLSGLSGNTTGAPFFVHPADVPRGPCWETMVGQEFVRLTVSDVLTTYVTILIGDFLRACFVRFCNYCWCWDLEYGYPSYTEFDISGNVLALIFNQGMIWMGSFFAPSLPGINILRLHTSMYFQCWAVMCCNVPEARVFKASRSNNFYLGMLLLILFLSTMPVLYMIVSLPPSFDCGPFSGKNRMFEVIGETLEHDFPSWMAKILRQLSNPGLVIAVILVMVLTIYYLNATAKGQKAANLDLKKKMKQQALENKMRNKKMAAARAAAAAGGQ
T3 sequence (Q4KL25 whole entry partner): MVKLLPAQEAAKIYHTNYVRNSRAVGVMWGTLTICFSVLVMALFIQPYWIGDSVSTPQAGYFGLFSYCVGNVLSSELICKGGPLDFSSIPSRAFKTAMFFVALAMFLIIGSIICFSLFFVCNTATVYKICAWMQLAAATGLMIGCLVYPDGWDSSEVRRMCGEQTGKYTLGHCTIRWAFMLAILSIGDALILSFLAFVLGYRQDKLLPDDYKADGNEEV
T3 sequence (Q8K467 29-153 partner): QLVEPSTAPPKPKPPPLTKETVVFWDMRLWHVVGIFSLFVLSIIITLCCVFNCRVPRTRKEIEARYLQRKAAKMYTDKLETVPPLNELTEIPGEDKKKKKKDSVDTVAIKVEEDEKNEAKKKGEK
T3 sequence (Q9Z309 whole entry partner): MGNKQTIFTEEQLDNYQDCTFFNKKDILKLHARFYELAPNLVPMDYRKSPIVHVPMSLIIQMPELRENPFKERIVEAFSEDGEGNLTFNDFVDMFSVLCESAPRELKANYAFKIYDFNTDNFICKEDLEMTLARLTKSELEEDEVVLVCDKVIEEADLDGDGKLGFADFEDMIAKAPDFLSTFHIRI

For `C[N+](C)(C)CCSS(C)(=O)=O.[Br-]` [MTSET, 2-(trimethylammonium)ethyl methanethiosulfonate, bromide], the “amplitude of the background current after MTSET treatment” value in test [1] is -17.5539 and -22.5978 and -20.1413 and -23.0553 and -21.6542; in test [2], -12.9811 and -13.0886 and -13.798 and -25.7685 and -27.4817 and -21.0828. Also, the “effect on the MET current amplitude” value at TMC1-M412C [3] is on record as “did change the MET current amplitude”. In addition, the “effect on the MET current” value on TMC1-M412C [4] was “reduced the MET current”.

Source of the values: PMC6853638, “TMC1 is an essential component of a leak channel that modulates tonotopy and excitability of auditory hair cells in mice” (eLife, 2019).
